Results on 39 molecules are retold here after the Deep4Chem optical property database.

The data set in a line: photoluminescence quantum yield (fraction); solvent given as SMILES.
[1] abbreviates: in O=P(c1ccccc1)(c1ccccc1)c1ccccc1Oc1ccccc1P(=O)(c1ccccc1)c1ccccc1.
Where [2] appears, read: in c1cc(-n2c3ccccc3c3ccccc32)cc(-n2c3ccccc3c3ccccc32)c1.

Take `CC1(C)c2ccccc2-c2cc3c4ccccc4n(-c4ccc(-c5nc(-c6ccccc6)nc(-c6ccccc6)n5)cc4)c3cc21`: the photoluminescence quantum yield under setting [1] turned out to be 0.933.

Take `c1ccc(-c2nn(-c3ccccc3)c3nc4ccccc4cc23)cc1`: the photoluminescence quantum yield amounted to 0.86 (in C1CCCCC1); 0.9 (in C1CCOC1); 0.73 (in CC#N); 0.85 (in CC(C)=O); 0.91 (in CCCCCl); 0.88 (in CCCCOCCCC). The molecule further returned a photoluminescence quantum yield (in CN(C)C=O) of 0.78.

The molecule `O=c1c2cc(C#Cc3ccccc3)ccc2nc2ccc(C#Cc3ccccc3)cn12` came in with a photoluminescence quantum yield (in ClCCl) of 0.41.

Where the note is “in c1ccccc1”, `CCOC(=O)CSc1nc(C)c(CC)c(C#N)c1C#N` had a photoluminescence quantum yield of 0.034.

Consider `[NH3+]c1cc([NH3+])cc(-c2[nH+]c3ccccc3s2)c1`, for which the photoluminescence quantum yield (in O) was determined as 0.008.

As for `Clc1nc(Cl)nc(Nc2ccc3c4cccc5cccc(c6cccc2c63)c54)n1`, the photoluminescence quantum yield (in C1COCCO1) came to 0.068, the photoluminescence quantum yield (in CC#N) is 0.011, the photoluminescence quantum yield (in CCCCOCCCC) was 0.12 and the photoluminescence quantum yield (in CCOC(C)=O) was found to be 0.014.

With `CCC(C)(C)c1ccc(-c2ccc3c(c2)C(CCOC)(CCOC)c2cc(C(C)(C)CC)ccc2-3)cc1`, the photoluminescence quantum yield (in C1CCCCC1) stood at 0.71.

Take `c1ccc2c(-c3ccncc3)c3c(nc2c1)-c1cc2c(cc1CC3)-c1nc3ccccc3c(-c3ccncc3)c1CC2`: the photoluminescence quantum yield (in ClC(Cl)Cl) amounted to 0.961.

As for `CCc1ccc(-c2nc(-c3ccc(-n4c5ccccc5c5ccccc54)cc3)cc(-c3ccc(-n4c5ccccc5c5ccccc54)cc3)n2)cc1`, the photoluminescence quantum yield came out at 0.6 (in C1CCOC1), 0.74 (in CN(C)C=O), 0.71 (in Cc1ccccc1) and 0.58 (in ClC(Cl)Cl).

In turn, `O=[N+]([O-])c1ccc(/C=C/c2nc3c4ccccc4c4ccccc4c3o2)cc1` came in with a photoluminescence quantum yield (in CC#N) of 0.2.

Regarding `COc1ccc(C2=[O+][B-](F)(F)OC(c3ccc4c(c3)Cc3ccccc3-4)=C2)cc1`, the photoluminescence quantum yield (in CC#N) is 0.94.

For the molecule `O=C(c1ccc(N2c3ccccc3Oc3ccccc32)cc1)c1cccc(C(=O)c2ccc(N3c4ccccc4Oc4ccccc43)cc2)c1`, the photoluminescence quantum yield stood at 0.36 (in Cc1ccccc1) and 0.71 (in c1cc(-c2cccc(-n3c4ccccc4c4ccccc43)c2)cc(-n2c3ccccc3c3ccccc32)c1).

`CCn1c2sccc2c2c3nsnc3c3c4ccsc4n(CC)c3c21`: the photoluminescence quantum yield was 0.51 (in C1CCOC1); 0.47 (in CCOC(C)=O); 0.43 (in CN(C)C=O); 0.45 (in Cc1ccccc1); 0.34 (in ClCCl).

Take `COC(=O)COc1ccc(/C=C/C2=[N+]3C(=C(c4ccc(N(C)C)cc4)c4c(C)cc(C)n4[B-]3(F)F)C(C)=C2)cc1`: the photoluminescence quantum yield (in CO) is 0.67.

Turning to `CC(C)(C)c1ccc2c(c1)c1cc(C(C)(C)C)ccc1n2-c1ccccc1-c1nc(-c2ccccc2P(=O)(c2ccccc2)c2ccccc2)nc(-c2ccccc2P(=O)(c2ccccc2)c2ccccc2)n1`, under setting [1], the photoluminescence quantum yield came out at 0.38.

In the case of `Clc1ccc(C2=C(c3ccc(Cl)cc3)c3cccc4c3c(cc3nc5ccccc5nc34)O2)cc1`, the photoluminescence quantum yield (in ClCCl) was determined as 0.37.

In turn, `N#Cc1ccc(-c2cc3c(ccc4sccc43)s2)cc1` returned a photoluminescence quantum yield (in ClCCl) of 0.22.

In the case of `c1ccc(-c2nnc(-c3ccc(N4c5ccccc5N(c5ccccc5)c5ccccc54)cc3)n2-c2ccccc2)cc1`, the photoluminescence quantum yield is, setting by setting: (in Cc1ccccc1) 0.07; under setting [2], 0.42.

For the molecule `c1ccc(-c2nc(-c3cccs3)[nH]c2-c2ccccc2)cc1`, the photoluminescence quantum yield (in CC#N) amounted to 0.39.

On to `CCCCCCCCCC[n+]1cc2ccc3c[n+](CCCCCCCCCC)cc4ccc(c1)c2c34`, for which, under “in CC#N”, the photoluminescence quantum yield was determined as 0.5.

In the case of `CC(C)(C)c1ccc(-c2cc(-c3ccc(-c4cc(-c5ccc(C(C)(C)C)cc5)c(C#N)s4)s3)sc2C#N)cc1`, the photoluminescence quantum yield (in ClCCl) was 0.17.

In the case of `COC(=O)c1ccc(-c2cc3ccc4cccc5ccc(c2)c3c45)cc1`, under “in Cc1ccccc1”, the photoluminescence quantum yield is 0.43.

For `O=S(=O)(c1cccc(-n2c3ccccc3c3ccccc32)c1)c1cccc(-n2c3ccccc3c3ccccc32)c1`, the photoluminescence quantum yield worked out at 0.109 (in CCCCC(CC)n1c2ccc(-n3c4ccccc4c4ccccc43)cc2c2cc(-n3c4ccccc4c4ccccc43)ccc21) and 0.218 under setting [2].

As for `C1=Nc2cccc3cccc(c23)N1`, the photoluminescence quantum yield runs as follows: (in CC#N) 0.0013; (in CO) 0.0005; (in CS(C)=O) 0.0031; (in Cc1ccccc1) 0.005.

`Cc1ccc2nc3[nH]c(=O)[nH]c(=O)c3nc2c1`: the photoluminescence quantum yield came out at 0.025 (in CC#N) and 0.034 (in ClCCCl).

`CC(C)(C)c1ccc2oc3nc4oc5ccc(-n6c7ccccc7c7cc(-n8c9ccccc9c9ccccc98)ccc76)cc5c4cc3c2c1` came in with a photoluminescence quantum yield (in ClC(Cl)Cl) of 0.15.

Where the note is “in O”, `COc1cc(-c2cc(N3CCCCC3)c(C#N)c3c2-c2cccc4cccc-3c24)cc(OC)c1OC` showed a photoluminescence quantum yield of 0.28.

The molecule `N#Cc1c(N2CCCC2)cc(-c2ccccc2)c2c1-c1cccc3cccc-2c13` registered a photoluminescence quantum yield (in O) of 0.25.

For `CC(C)CCCN1c2ccccc2CCc2ccccc21`, the photoluminescence quantum yield by setting is: (in CC#N) 0.029; (in CO) 0.021.

Regarding `N#CC(C#N)=Cc1ccc2nc(C#Cc3ccc(N(c4ccc(C#Cc5nc6ccc(C=C(C#N)C#N)cc6s5)cc4)c4ccc(C#Cc5nc6ccc(C=C(C#N)C#N)cc6s5)cc4)cc3)sc2c1`, for the setting “in Cc1ccccc1”, the photoluminescence quantum yield turned out to be 0.61.

`CN(C)c1ccc(C#Cc2ccc3c(N(C)C)cc(-c4ccccc4)cc3c2)cc1` had a photoluminescence quantum yield (in ClCCl) of 0.76.

As to `CN(C)c1ccc(/C=C/c2ccncn2)cc1`, the photoluminescence quantum yield (in ClCCl) came to 0.15.

Consider `COc1ccccc1C1=[N+]2C(=C(c3ccccc3)c3c4c(c(-c5ccccc5OC)n3[B-]2(F)F)C2C=CC4CC2)C2=C1C1C=CC2CC1` (configuration not stated), for which the photoluminescence quantum yield (in ClCCl) turned out to be 0.87.

Take `COc1ccc(N(c2ccc(/C=C(\C)c3ccccc3)cc2)c2ccc(OC)cc2)cc1`: the photoluminescence quantum yield (in Cc1ccccc1) worked out at 0.41.

The molecule `COC(=O)CC1(C(=O)OC)Oc2c(c(C(C)=O)c3c(c2C(C)=O)OCO3)O1` had a photoluminescence quantum yield (in CC#N) of 0.62.

For the molecule `COc1ccc(-c2csc(/C(C#N)=C/c3ccncc3)n2)cc1`, the photoluminescence quantum yield is, setting by setting: (in CC#N) 0.04; (in CCO) 0.002; (in CN(C)C=O) 0.016; (in CS(C)=O) 0.038; (in Cc1ccccc1) 0.285; (in ClCCl) 0.129.

Molecule `COc1ccc(C2=C(c3ccc(OC)cc3)C(c3ccc(OC)cc3)=[N+]3C2=C(c2ccc(OC)cc2)c2c(-c4ccc(OC)cc4)c(-c4ccc(OC)cc4)c(-c4ccc(OC)cc4)n2[B-]3(F)F)cc1` returned a photoluminescence quantum yield (in C1CCOC1) of 0.26.

In the case of `CC1(C)C(/C=C/C2=C(Oc3ccc(CCN=C=S)cc3F)C(=C/C=C3/N(CCCS(=O)(=O)[O-])c4ccccc4C3(C)C)/CCC2)=[N+](CCCS(=O)(=O)[O-])c2ccccc21`, the photoluminescence quantum yield (in CO) worked out at 0.14.

As for `CCN(CC)c1ccc2c(c1)oc(=O)c1c(C)nc3c(c(-c4ccccc4)nn3C)c12`, the photoluminescence quantum yield is, setting by setting: (in C1CCCCC1) 0.699; (in CCOC(C)=O) 0.627; (in CN(C)C=O) 0.483; (in CO) 0.43; (in ClCCl) 0.673.
